How the values were obtained:
[1] = Metabolite identification, HLM incubation and rat model combined (UHPLC-Q-Exactive Orbitrap MS); set-up: species or system human; rat; conditions: for Characteristic Metabolite: characteristic / defining metabolites by the screening criteria; for Number of Metabolites / Number of Phase I Metabolites / Number of Phase II Metabolites: in vitro (HLM) and in vivo (rat) models together
Protocol: (§1) Sprague-Dawley male rats (200 ± 20 g) were obtained from SPF (Beijing) Biotechnology Co., Ltd. (Beijing, China). The animals were housed under controlled environmental conditions: Temperature was maintained at 20–25 °C, humidity at 50 ± 10%, and a 12/12 h light/dark cycle was applied. They had ad libitum access to standard laboratory chow and filtered water. A two-week acclimatization period was provided before the experiments began. The 26 SC standards were prepared in normal saline at concentrations of 0.5 mg/mL, 0.1 mg/mL, and 0.05 mg/mL. Each rat was weighed before administration, and the injection dose was adjusted based on body weight. The dosing volume for each rat was maintained at approximately 200 µL.
(§2) 162 Sprague-Dawley (SD) rats were randomly divided into 27 groups, with six rats in each group. The control group received an injection of normal saline, while the remaining groups were injected with 26 different types of SCs. The dosage administered was determined based on pre-experimental results, specifically selecting the dose that produced the highest level of metabolites in the blood samples collected 1 h after tail vein injection at concentrations of 0.5 mg/kg, 0.1 mg/kg, and 0.05 mg/kg, as shown in Table 6. Subsequently, tail vein administration was conducted at the specified dosage. The orbital venous blood was taken from the outer canthus of the rat with capillaries at 15 min and 1 h. Feces were collected after the blood. The rats were then sacrificed, and their brains and livers were dissected. Samples were immediately frozen in liquid nitrogen and stored at −80 °C until analysis.
For blood samples, 0.5 mL of each sample was mixed with 1.0 mL of acetonitrile. For brain samples, 0.2 g of tissue was combined with 0.5 mL of acetonitrile. For liver samples, 0.5 g of tissue was mixed with 0.5 mL of acetonitrile. For feces samples, 0.2 g of sample was combined with 1 mL of acetonitrile-water (3:1) for grinding and homogenization. Each mixture was sonicated for 40 min, allowed to precipitate at 4 °C for 30 min, and then centrifuged at 13,500 rpm for 10 min. The supernatant was filtered using a syringe filter (0.45 μm) for further testing.

[2] = Human liver microsomal incubation (in vitro metabolic model); conditions: HLM, 37 °C 1 h, then UDPGA 30 min; peak area of parent in experimental group vs degradation control group
Protocol: Each of the 26 SCs was configured to 1 mg/mL with acetonitrile. The HLMs, NADPH regeneration solution A, regeneration solution B, and UDPGA solution were thawed at 4 °C. An icebox was prepared, and all additional steps were performed on ice. For this, 10 µL of NADPH regeneration solution A, 2 µL of regeneration solution B, 2 µL of SCs standard, and 10 µL of mixed human liver microsomes were added to 176 µL of 0.1 mol/L phosphate buffer. The mixture was mixed thoroughly and incubated at 37 °C for 1 h. Subsequently, 20 µL of UDPGA solution was added and mixed well, followed by an additional incubation for 30 min. The reaction was stopped by adding 200 µL of ice-cold acetonitrile. Additionally, the negative control group and the degradation control group were set up following the same procedure. […] The unadded components were supplemented with an equal amount of phosphate buffer. All samples were centrifuged at a high speed of 13,500 r for 10 min after reaction termination. The supernatant was collected and subsequently passed through a membrane filter (0.45 μm) prior to sampling.
The samples were separated and analyzed using a UHPLC-Q-Exactive Orbitrap MS system (Thermo Fisher Scientific, Waltham, MA, USA), which comprised a Thermo-Scientific™ Q-Exactive™(Thermo Fisher Scientific, Waltham, MA, USA) quadrupole electrostatic field orbitrap mass spectrometer coupled to a Vanquish ultrahigh-performance liquid chromatography (UHPLC) system (Thermo Fisher Scientific, Waltham, MA, USA) with a heated electrospray ionization HESI source in the positive ionization mode. The samples were separated on an ACQUITY UPLC BEH C18 Column (100 × 2.1 mm, 1.7 μm) with the column temperature maintained at 30 °C. The chromatographic separation was achieved using a gradient elution program with mobile phase A consisting of 0.1% formic acid in water and mobile phase B containing 0.1% formic acid in acetonitrile. The gradient profile was programmed as follows: Initial conditions were maintained at 5% B from 0 to 1 min, followed by a linear increase to 95% B from 1 to 11 min; the 95% B composition was held from 11 to 15.5 min, then decreased back to 5% B from 15.5 to 16 min, and finally maintained at 5% B from 16 to 18 min. The flow rate was set at 0.3 mL/min, and the injection volume was 10 μL for all analyses.
The following HESI source conditions were adopted: Acquisition mode was set to positive ion mode; the capillary temperature was maintained at 325 °C, the auxiliary gas heater temperature was set to 350 °C, and the spray voltage was applied at 3.7 kV. The mass spectrometry analysis was carried out in full-scan (FS) mode to trigger data-dependent acquisition in tandem mass spectrometry (FS-ddMS^2) mode. The FS data acquisition was performed using the following parameters: a resolution of 60,000, an automatic gain control (AGC) target of 1 × 10^6, a scan range of m/z 66.7–1000, and a maximum injection time (IT) of 250 ms. The ddMS^2 data acquisition was performed using the following parameters: a resolution of 30,000; an automatic gain control (AGC) target of 1 × 10^5; normalized collision energies (NCEs) of 20, 40, and 70 eV; and a maximum injection time (IT) of 50 ms.
Data acquisition was executed utilizing Xcalibur 4.3 software (Thermo Fisher Scientific, Waltham, MA, USA). The subsequent analysis of the acquired data was conducted using Thermo Fisher Scientific […] 3.2 software (Thermo Fisher Scientific, Waltham, MA, USA). The workflow’s nodes employed specific parameters: a mass tolerance of 5 ppm, a signal-to-noise threshold of 3, a minimum peak intensity of 1 × 10^5, a maximum peak width of 0.8 min, and a minimum of 3 scans per peak.

[3] = Clinical symptoms of rats in metabolic model; assay type: in vivo, rat; conditions: SD rats, dose 0.05-0.5 mg/kg per Table 6
Protocol: as §1, §2

| Compound | Characteristic Metabolite [1] | Number of Metabolites [1] | Number of Phase I Metabolites [1] | Number of Phase II Metabolites [1] | Conversion Rate [2] | Animal manifestations after tail vein drug injection [3] |
| --- | --- | --- | --- | --- | --- | --- |
| CCCCCn1cc(C(=O)NC(C(N)=O)C(C)(C)C)c2cccnc21 (centres unmarked) [ADB-P7AICA] | Hydroxylation, deamination, and dehydrogenation metabolites | 40 | 28 | 12 | 42.9% | – |
| O=C(c1cccc2ccccc12)c1nc2ccccc2n1CCCCCF [BIM-2201] | Oxidative defluorination, dihydrodiol, and hydroxylated metabolite | 29 | 17 | 12 | 90.2% | – |
| CCCCCn1cc(C(=O)c2ccc3ccccc3c2)cc1-c1ccccc1C [JWH-370] | Dihydrodiol, hydroxylated, and de-N-alkyl side chain metabolites | 14 | 9 | 5 | 42.0% | syncope |
| CCCCCn1c(C(=O)c2cccc3ccccc23)nc2ccccc21 [BIM-018] | Ketogenic, hydroxylated, and dehydrogenated metabolites | 27 | 13 | 14 | 93.7% | – |
| CC1(C)C(C(=O)c2cn(Cc3ccc(F)cc3)c3ccccc23)C1(C)C [FUB-144] | Ketogenic and hydroxylated, hydroxylated, and dehydrogenated metabolites | 18 | 11 | 7 | 30.4% | hematuria |
| CCCCCCn1nc(C(=O)NC(C(N)=O)C(C)(C)C)c2ccccc21 (centres unmarked) [ADB-HEXINACA] | Deamination, deamidation, amide hydrolysis, and hydroxylation metabolites | 31 | 24 | 7 | 24.8% | – |
| C=CCCCn1nc(C(=O)NC(C(N)=O)C(C)(C)C)c2ccccc21 (centres unmarked) [ADB-4en-PINACA] | Deamination, hydration, dihydrodiol, and deamination metabolites | 30 | 25 | 5 | 18.2% | – |
| CC(C)C(NC(=O)c1nn(Cc2ccc(F)cc2)c2ccccc12)C(N)=O (centres unmarked) [AB-FUBINACA] | Hydrolysis, hydroxylation, and deamination metabolites | 19 | 15 | 4 | 74.6% | – |
| CC(C)(C)C(NC(=O)c1nn(CC2CCCCC2)c2ccccc12)C(N)=O (centres unmarked) [ADB-CHMINACA] | Deamination, deamination of N-alkyl side chains, and hydrolytic metabolites | 25 | 18 | 7 | 62.8% | irritable, with unstable gait and tachypnea |
| CN1CCCCC1Cn1cc(C(=O)C2C(C)(C)C2(C)C)c2ccccc21 (centres unmarked) [AB-005] | Hydroxylation, de-N-alkyl side chain, dehydrogenation, and dihydroxylation metabolites | 17 | 12 | 5 | 60.9% | – |
| CCCCCn1cc(C(=O)c2ccc3ccccc3c2)cc1-c1ccccc1F [JWH-307] | Hydroxylation, ketogenic, and de-N-alkyl side chain metabolites | 20 | 12 | 8 | 55.2% | – |
| CCOC(=O)C(NC(=O)c1nn(CCCCCF)c2ccccc12)C(C)C (centres unmarked) [5F-EMB-PICA] | Ester hydrolysis, amide hydrolysis, and oxidative defluorination metabolite | 19 | 9 | 10 | 80.6% | – |
| C=CCCCn1nc(C(=O)NC(C(=O)OC)C(C)(C)C)c2ccccc21 (centres unmarked) [MDMB-4en-PINACA] | Dihydrodiol, ester hydrolysis, ketogenic, and amide hydrolysis metabolites | 14 | 12 | 2 | 69.7% | – |
| C=CCCCn1nc(C(=O)NC(C(N)=O)C(C)C)c2ccccc21 (centres unmarked) [AB-4en-PINACA] | Deamination, hydration, and deamidation metabolites | 18 | 17 | 1 | 98.7% | – |
| COC(=O)C(NC(=O)c1nn(CCCCCF)c2ccccc12)C(C)(C)C (centres unmarked) [5F-ADB] | Ester hydrolysis, dehydrogenation, and acidification metabolites | 25 | 17 | 8 | 88.1% | hematuria |
| CCCCCn1cc(C(=O)C2C(C)(C)C2(C)C)c2ccccc21 [UR-144] | Hydroxylation, de-N-alkyl side chains, and ketogenic metabolites | 24 | 15 | 9 | 30.5% | – |
| C=CCCn1nc(C(=O)NC(C(N)=O)C(C)(C)C)c2ccccc21 (centres unmarked) [ADB-3en-BUTINACA] | Dihydrodiol, deamination, deamination, and hydroxylation metabolites | 22 | 18 | 4 | 98.7% | – |

Source: publication PMC12250893, “Systematic Characterization of In Vitro and In Vivo Metabolic Pathways and Identification of Novel Biomarkers of 26 Synthetic Cannabinoids” (Molecules, 2025)
